# Reference: US6737383B1, “Herbicidal oxadiazolidines” (priority 1999, dated 2004)
# Columns and labels:
# wild oat = test: Test B pre/postemergence wild oat; format: in vivo, Avena fatua
# In short: (§1)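 Test chemicals in a non-phytotoxic solvent mixture with surfactant were sprayed preemergence onto planted seeds and postemergence onto plants 2 to 18 cm tall (1- to 4-leaf stage). After twelve to sixteen days in a greenhouse, injury was visually rated against untreated controls from 0 (no effect) to 10 (complete control).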
# giant foxtail = test: Test B pre/postemergence giant foxtail; format: in vivo, Setaria faberii
# In short: as §1
# velvetleaf = test: Test B pre/postemergence velvetleaf; format: in vivo, Abutilon theophrasti
# In short: as §1
# sugar beet = test: Test B pre/postemergence sugar beet; format: in vivo, Beta vulgaris
# In short: as §1
# crabgrass = test: Test B pre/postemergence crabgrass; format: in vivo, Digitaria sanguinalis
# In short: as §1
# rape = test: Test B pre/postemergence rape; format: in vivo, Brassica napus
# In short: as §1
# pigweed = test: Test B pre/postemergence pigweed; format: in vivo, Amaranthus retroflexus
# In short: as §1
# corn = test: Test B pre/postemergence corn; format: in vivo, Zea mays
# In short: as §1
# bedstraw = test: Test B pre/postemergence bedstraw; format: in vivo, Galium aparine
# In short: as §1
# blackgrass = test: Test B pre/postemergence blackgrass; format: in vivo, Alopecurus myosuroides
# In short: as §1
# bamyardgrass = test: Test B flood test barnyardgrass; format: in vivo, Echinochloa crus-galli
# In short: (§2)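 Read-out is a visual response score from 0 (no effect) to 10 (complete control), assigned by comparison with untreated controls. Treatment was applied at the 2-leaf stage, and plants stayed in the greenhouse for twelve to sixteen days before scoring.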
# rice = test: Test B flood test rice; format: in vivo, Oryza sativa
# In short: as §2
# cocklebur = test: Test B pre/postemergence cocklebur; format: in vivo, Xanthium strumarium
# In short: as §1
# morningglory = test: Test B pre/postemergence morningglory; format: in vivo, Ipomoea hederacea
# In short: as §1
# surinam grass = test: Test B pre/postemergence surinam grass; format: in vivo, Brachiaria decumbens
# In short: as §1
# smallflower flatsedge = test: Test B flood test smallflower flatsedge; format: in vivo, Cyperus difformis
# In short: as §2
# [1] = Postemergence, Rate 500 g/ha, scale of 0 to 10 where 0 is no effect and 10 is complete control
# [2] = Preemergence, Rate 62 g/ha, scale 0 to 10 (0 no effect, 10 complete control)
# [3] = Preemergence, Rate 125 g/ha, scale of 0 to 10 where 0 is no effect and 10 is complete control
# [4] = Preemergence, Rate 250 g/ha, scale 0 to 10, 0 is no effect, 10 is complete control
# [5] = Preemergence, Rate 500 g/ha, scale 0 to 10, 0 is no effect, 10 is complete control
# [6] = Rate 62 g/ha, Postemergence, scale of 0 to 10 where 0 is no effect and 10 is complete control
# [7] = Postemergence, Rate 125 g/ha, scale 0 to 10, 0 is no effect, 10 is complete control
# [8] = Postemergence, Rate 250 g/ha, scale 0 to 10, 0 is no effect, 10 is complete control
# [9] = Preemergence, Rate 250 g/ha, scale of 0 to 10 where 0 is no effect and 10 is complete control
# [10] = Rate 62 g/ha, flood test species, Pre-emergence, visual evaluation after twelve to sixteen days
# [11] = Rate 125 g/ha, under heading Pre-emergence, flood test species, visual evaluation after twelve to sixteen days
# [12] = Rate 250 g/ha, Pre-emergence, flood-test species, scale 0 to 10, 0 is no effect, 10 is complete control
# [13] = Rate 500 g/ha, Pre-emergence, flood test species, scale 0 to 10 (0 no effect, 10 complete control)
smiles,measurement,setting,value
CC(C)N(C(=O)n1oc(=O)n(CC2CCC2)c1=O)c1ccc(F)cc1 [Compound 403],Wild oats plant response rating,wild oat; [1],5
same,"Plant response rating, Wild oats",wild oat; [2],0
same,"Plant response rating, Wild oats",wild oat; [3],4
same,Wild oats plant response rating,wild oat; [4],5
same,Wild oats plant response rating,wild oat; [5],8
same,Wild oats plant response rating,wild oat; [6],0
same,"Plant response rating, Giant foxtail",giant foxtail; [7],3
same,"Plant response rating, Giant foxtail",giant foxtail; [8],9
same,Giant foxtail plant response rating,giant foxtail; [1],9
same,"Plant response rating, Giant foxtail",giant foxtail; [2],10
same,"Plant response rating, Giant foxtail",giant foxtail; [3],10
same,Giant foxtail plant response rating,giant foxtail; [4],10
same,Giant foxtail plant response rating,giant foxtail; [5],10
same,Giant foxtail plant response rating,giant foxtail; [6],3
same,"Plant response rating, Velvetleaf",velvetleaf; [8],0
same,Velvetleaf plant response rating,velvetleaf; [1],6
same,"Plant response rating, Velvetleaf",velvetleaf; [2],0
same,"Plant response rating, Velvetleaf",velvetleaf; [3],0
same,Velvetleaf plant response rating,velvetleaf; [4],3
same,Velvetleaf plant response rating,velvetleaf; [5],5
same,Velvetleaf plant response rating,velvetleaf; [6],0
same,"Plant response rating, Sugarbeets",sugar beet; [8],0
same,Sugarbeets plant response rating,sugar beet; [1],3
same,"Plant response rating, Sugarbeets",sugar beet; [2],0
same,"Plant response rating, Sugarbeets",sugar beet; [3],1
same,Sugarbeets plant response rating,sugar beet; [4],3
same,Sugarbeets plant response rating,sugar beet; [5],5
same,Sugarbeets plant response rating,sugar beet; [6],0
same,"Plant response rating, Crabgrass",crabgrass; [7],3
same,"Plant response rating, Crabgrass",crabgrass; [8],8
same,Crabgrass plant response rating,crabgrass; [1],9
same,"Plant response rating, Crabgrass",crabgrass; [2],10
same,"Plant response rating, Crabgrass",crabgrass; [3],10
same,Crabgrass plant response rating,crabgrass; [4],10
same,Crabgrass plant response rating,crabgrass; [5],10
same,Crabgrass plant response rating,crabgrass; [6],2
same,"Plant response rating, Rape",rape; [8],4
same,Rape plant response rating,rape; [1],7
same,"Plant response rating, Rape",rape; [2],0
same,"Plant response rating, Rape",rape; [3],1
same,Rape plant response rating,rape; [4],5
same,Rape plant response rating,rape; [5],7
same,Rape plant response rating,rape; [6],2
same,"Plant response rating, Redroot pigweed",pigweed; [8],1
same,Redroot pigweed plant response rating,pigweed; [1],2
same,"Plant response rating, Redroot pigweed",pigweed; [2],0
same,"Plant response rating, Redroot pigweed",pigweed; [3],4
same,Redroot pigweed plant response rating,pigweed; [4],9
same,Redroot pigweed plant response rating,pigweed; [5],9
same,Redroot pigweed plant response rating,pigweed; [6],0
same,"Plant response rating, Corn",corn; [7],0
same,"Plant response rating, Corn",corn; [8],0
same,Corn plant response rating,corn; [1],0
same,"Plant response rating, Corn",corn; [2],0
same,"Plant response rating, Corn",corn; [3],2
same,Corn plant response rating,corn; [4],2
same,Corn plant response rating,corn; [5],6
same,Corn plant response rating,corn; [6],0
same,"Plant response rating, Bedstraw",bedstraw; [7],2
same,Bedstraw plant response rating,bedstraw; [1],8
same,"Plant response rating, Bedstraw",bedstraw; [2],0
same,"Plant response rating, Bedstraw",bedstraw; [3],0
same,Bedstraw plant response rating,bedstraw; [6],0
same,"Plant response rating, Blackgrass",blackgrass; [7],9
same,"Plant response rating, Blackgrass",blackgrass; [8],10
same,Blackgrass plant response rating,blackgrass; [1],10
same,"Plant response rating, Blackgrass",blackgrass; [2],2
same,"Plant response rating, Blackgrass",blackgrass; [3],7
same,Blackgrass plant response rating,blackgrass; [9],7
same,Blackgrass plant response rating,blackgrass; [5],9
same,Blackgrass plant response rating,blackgrass; [6],6
same,"Plant response rating, Barnyardgrass (0 to 10 scale, 0 is no effect, 10 is complete control)",bamyardgrass; [10],2
same,"Barnyardgrass plant response rating (0 to 10 scale, 0 is no effect, 10 is complete control)",bamyardgrass; [11],4
same,Barnyardgrass plant response rating,bamyardgrass; [12],2
same,Barnyardgrass plant response rating,bamyardgrass; [13],7
same,"Plant response rating, Rice (0 to 10 scale, 0 is no effect, 10 is complete control)",rice; [10],0
same,"Rice plant response rating (0 to 10 scale, 0 is no effect, 10 is complete control)",rice; [11],0
same,Rice plant response rating,rice; [12],0
same,Rice plant response rating,rice; [13],0
same,"Plant response rating, Cocklebur",cocklebur; [7],0
same,"Plant response rating, Cocklebur",cocklebur; [8],0
same,Cocklebur plant response rating,cocklebur; [1],0
same,"Plant response rating, Cocklebur",cocklebur; [2],0
same,"Plant response rating, Cocklebur",cocklebur; [3],0
same,Cocklebur plant response rating,cocklebur; [4],0
same,Cocklebur plant response rating,cocklebur; [6],0
same,"Plant response rating, Morningglory",morningglory; [8],8
same,Morningglory plant response rating,morningglory; [1],10
same,"Plant response rating, Morningglory",morningglory; [2],0
same,"Plant response rating, Morningglory",morningglory; [3],0
same,Morningglory plant response rating,morningglory; [4],0
same,Morningglory plant response rating,morningglory; [5],0
same,Morningglory plant response rating,morningglory; [6],2
same,"Plant response rating, B. signalgrass",surinam grass; [7],2
same,"Plant response rating, B. signalgrass",surinam grass; [8],3
same,B. signalgrass plant response rating,surinam grass; [1],6
same,"Plant response rating, B. signalgrass",surinam grass; [2],3
same,"Plant response rating, B. signalgrass",surinam grass; [3],4
same,B. signalgrass plant response rating,surinam grass; [9],5
same,B. signalgrass plant response rating,"surinam grass; Preemergence, Rate 500 g/ha, scale of 0 to 10 where 0 is no effect and 10 is complete control",7
same,B. signalgrass plant response rating,surinam grass; [6],0
same,"Plant response rating, S. Flatsedge (0 to 10 scale, 0 is no effect, 10 is complete control)",smallflower flatsedge; [10],0
same,"S. Flatsedge plant response rating (0 to 10 scale, 0 is no effect, 10 is complete control)",smallflower flatsedge; [11],0
same,S. Flatsedge plant response rating,smallflower flatsedge; [12],0
same,S. Flatsedge plant response rating,smallflower flatsedge; [13],6
